Data on 19 molecules can be found in US20210315893A1 (Galapagos NV, priority 2017, published 2021).

The subject of assay [1] is HFL-1 cells. The experiment in a line: IL-8 production assay (S1P induced IL-8). In kind it is cell-based. As to conditions: Homo sapiens, HFL1; S1P (1 μM) induced IL-8 in HFL-1 cells, starvation medium without HSA; read-out: IL8 EC50. The procedure, abridged:
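HFL-1 human fetal lung fibroblasts were starved in F12K/1% FBS, then given compound for 1 h (10-point, 1/3 dilution, 30 μM top, 0.3% DMSO final). S1P was added at 1 μM final for 16–24 h at 37 °C, and secreted IL-8 in supernatant quantified by ELISA.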

The next assay has as its target T1, S1PR2 (Homo sapiens, UniProt O95136).
T1 construct: expressed in transfected cells
The experiment in a line: S1PR2 binding assay (competition with radioactively labeled S1P, SpA). As to conditions: membranes from stable cell line over expressing S1PR2, SpA beads; read-out: S1P2 EC50 (nM), S1PR2 binding EC50. In a few lines: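 Competition with [3H]S1P for membranes from a stable S1PR2-overexpressing cell line, 20 μg/well, captured on PVT-WGA SPA beads, in 20 mM Tris pH 7.5, 10 mM MgCl2, 100 mM NaCl, 0.4% fatty-acid-free BSA, 1 mM Na3VO4. 2 h at room temperature, then centrifugation and scintillation counting.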

Assay [2] has as its system HFL-1 cells. As to the kind of experiment: IL8 assay in the presence of Human Serum Albumin. The settings on record: HFL1, read-out: HSA IL8 EC50.
The target of assay [3] is T2, human GPCR sphingosine 1-phosphate receptor 2 (Homo sapiens, UniProt O95136).
T2 construct: host or cells: CHO
T2 sequence (O95136 whole entry): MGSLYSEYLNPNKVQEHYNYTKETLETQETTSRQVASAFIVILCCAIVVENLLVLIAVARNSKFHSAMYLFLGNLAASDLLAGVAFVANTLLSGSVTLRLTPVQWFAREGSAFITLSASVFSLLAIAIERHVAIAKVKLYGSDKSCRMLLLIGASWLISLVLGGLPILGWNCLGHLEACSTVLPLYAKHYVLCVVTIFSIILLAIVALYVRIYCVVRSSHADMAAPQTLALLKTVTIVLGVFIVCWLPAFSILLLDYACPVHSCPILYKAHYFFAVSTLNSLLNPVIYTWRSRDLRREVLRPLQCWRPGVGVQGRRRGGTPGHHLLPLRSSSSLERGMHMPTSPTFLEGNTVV
The experiment in a line: S1PR2 antagonist Ca2+ flux assay. It is filed as cell-based. The settings on record: antagonist mode, CHO-S1PR2 cells, S1P at EC80, Ca2+ fluorescence; read-out: S1P2 EC50 (nM), S1P2 antagonist EC50. In a few lines:
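CHO cells stably expressing human S1PR2, serum-starved 1 h, Fluo8-loaded; compound-evoked Ca2+ fluorescence read 3 min (agonist mode), then after 15 min S1P at EC80 added and read 3 min (antagonist mode). Max/baseline fluorescence ratios normalised to vehicle and S1P EC100 or EC50 controls; EC50 derived.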
On the technique in general: Calcium assays in cells follow changes in intracellular calcium, usually with a dye or a luminescent sensor.

Some results are limits rather than exact numbers.

T1 sequence (O95136 whole entry): as above

In general, EC50 refers to the concentration at which the effect is half-maximal. Consider `N#Cc1cc2[nH]c(Cc3nn(CC(=O)NC4CCCOC4)c(=O)c4ccccc34)nc2cc1OCC(F)F` (stereo not shown) [Compound 184, 2-[4-[[6-cyano-5-(2,2-difluoroethoxy)-1H-benzimidazol-2-yl)methyl]-1-oxo-phthalazin-2-yl]-N-tetrahydropyran-3-yl-acetamide], for which the EC50 was 23.8 nM with HFL-1 cells [1], 94.3 nM at S1PR2, 82.3 nM in the assay on HFL-1 cells [2] and 25.2 nM in assay [3].
With `N#Cc1cc2nc(Cc3nn(CC(=O)N4CCC(F)(F)CC4)c(=O)c4c3CCCC4)[nH]c2cc1OCC(F)F` [Compound 185, 6-(2,2-difluoroethoxy)-2-[[3-[2-(4,4-difluoro-1-piperidyl)-2-oxo-ethyl]-4-oxo-5,6,7,8-tetrahydrophthalazin-1-yl]methyl]-1H-benzimidazole-5-carbonitrile], the EC50 in the assay with HFL-1 cells [1] turned out to be 93.7 nM; on S1PR2, 166 nM; with HFL-1 cells [2] it was 302 nM; in assay [3], 30.4 nM.
Taken in the same sequence, the figures for `COC1CCN(C(=O)Cn2nc(Cc3nc4cc(C#N)c(OCC(F)F)cc4[nH]3)c3ccccc3c2=O)C1` (stereo not shown) [Compound 186, 6-(2,2-difluoroethoxy)-2-[[3-[2-(3-methoxypyrrolidin-1-yl)-2-oxo-ethyl]-4-oxo-phthalazin-1-yl]methyl]-1H-benzimidazole-5-carbonitrile] were 34.8 nM, 141 nM, 80.9 nM and 25 nM.
Taken in the same sequence, the figures for `COCCNC(=O)Cn1nc(Cc2nc3cc(C#N)c(OCC(F)F)cc3[nH]2)c2ccccc2c1=O` [Compound 187, 2-[4-[[5-cyano-6-(2,2-difluoroethoxy)-1H-benzimidazol-2-yl]methyl]-1-oxo-phthalazin-2-yl]-N-(2-methoxyethyl)acetamide] were 74.5 nM, 165 nM, 80.4 nM and 50.2 nM.
Taken in the same sequence, the figures for `N#Cc1cc2nc(Cc3nn(CC(=O)N4CCC(F)(F)CC4)c(=O)c4ccccc34)[nH]c2cc1OCC(F)F` [Compound 188, 6-(2,2-difluoroethoxy)-2-[[3-[2-(4,4-difluoro-1-piperidyl)-2-oxo-ethyl]-4-oxo-phthalazin-1-yl]methyl]-1H-benzimidazole-5-carbonitrile] were 258 nM, 380 nM, 663 nM and 63.4 nM.
For the molecule `CC(O)(CNC(=O)Cn1nc(Cc2nc3cc(C#N)c(OCC(F)F)cc3[nH]2)c2ccccc2c1=O)C(F)(F)F` (stereo not shown) [Compound 190, 2-[4-[[5-cyano-6-(2,2-difluoroethoxy)-1H-benzimidazol-2-yl]methyl]-1-oxo-phthalazin-2-yl]-N-(3,3,3-trifluoro-2-hydroxy-2-methylpropyl)acetamide], the EC50 amounted to 20.1 nM in the assay with HFL-1 cells [1], 63.6 nM on S1PR2, 38 nM with HFL-1 cells [2] and 15 nM in assay [3].
On to `N#Cc1cc2nc(Cc3nn(CC(=O)NC[C@H](O)C(F)(F)F)c(=O)c4ccccc34)[nH]c2cc1OCC(F)F` [Compound 191, 2-[4-[[5-cyano-6-(2,2-difluoroethoxy)-1H-benzimidazol-2-yl]methyl]-1-oxo-phthalazin-2-yl]-N-[(2S)-3,3,3-trifluoro-2-hydroxypropyl]acetamide], for which the EC50 in the assay on HFL-1 cells [1] worked out at 36.6 nM; at S1PR2, 66.4 nM; in the assay on HFL-1 cells [2] it was 99.9 nM; in assay [3], 11.8 nM.
Taken in the same sequence, the figures for `COCC(O)CNC(=O)Cn1nc(Cc2nc3cc(C#N)c(OCC(F)F)cc3[nH]2)c2ccccc2c1=O` (stereo not shown) [Compound 192, 2-[4-[[5-cyano-6-(2,2-difluoroethoxy)-1H-benzimidazol-2-yl]methyl]-1-oxo-phthalazin-2-yl]-N-(2-hydroxy-3-methoxypropyl)acetamide] were 156 nM, 190 nM, 666 nM and 41 nM.
As for `N#Cc1cc2nc(Cc3nn(CC(=O)N4CCC(O)CC4)c(=O)c4ccccc34)[nH]c2cc1OCC(F)F` [Compound 193, 6-(2,2-difluoroethoxy)-2-[[3-[2-(4-hydroxy-1-piperidyl)-2-oxo-ethyl]-4-oxo-phthalazin-1-yl]methyl]-1H-benzimidazole-5-carbonitrile], the EC50 in the assay on HFL-1 cells [1] was 49.7 nM; on S1PR2, 346 nM; with HFL-1 cells [2] it was 183 nM; in assay [3], 36.5 nM.
Taken in the same sequence, the figures for `N#Cc1cc2nc(Cc3nn(CC(=O)N(CCO)CC(F)F)c(=O)c4ccccc34)[nH]c2cc1OCC(F)F` [Compound 194, 2-[4-[[5-cyano-6-(2,2-difluoroethoxy)-1H-benzimidazol-2-yl]methyl]-1-oxo-phthalazin-2-yl]-N-(2,2-difluoroethyl)-N-(2-hydroxyethyl)acetamide] were 186 nM, 268 nM, 453 nM and 41.9 nM.
As to `CC(C#N)CN(C)C(=O)Cn1nc(Cc2nc3cc(C#N)c(OCC(F)F)cc3[nH]2)c2ccccc2c1=O` (stereo not shown) [Compound 195, 2-[4-[[5-cyano-6-(2,2-difluoroethoxy)-1H-benzimidazol-2-yl]methyl]-1-oxo-phthalazin-2-yl]-N-(2-cyanopropyl)-N-methyl-acetamide], the EC50 with HFL-1 cells [1] stood at 27.8 nM; on S1PR2, 197 nM; in the assay on HFL-1 cells [2], 171 nM; in assay [3] it was 31.9 nM.
Taken in the same sequence, the figures for `CN(CC1CC1)C(=O)Cn1nc(Cc2nc3cc(C#N)c(OCC(F)F)cc3[nH]2)c2ccccc2c1=O` [Compound 196, 2-[4-[[5-cyano-6-(2,2-difluoroethoxy)-1H-benzimidazol-2-yl]methyl]-1-oxo-phthalazin-2-yl]-N-(cyclopropylmethyl)-N-methyl-acetamide] were 27.2 nM, 83.1 nM, 445 nM and 15.7 nM.
As for `CN(CC(F)F)C(=O)Cn1nc(Cc2nc3cc(C#N)c(OCC(F)F)cc3[nH]2)c2ccccc2c1=O` [Compound 197, 2-[4-[[5-cyano-6-(2,2-difluoroethoxy)-1H-benzimidazol-2-yl]methyl]-1-oxo-phthalazin-2-yl]-N-(2,2-difluoroethyl)-N-methyl-acetamide], the EC50 was 139 nM in the assay on HFL-1 cells [1], 80.3 nM at S1PR2, 634 nM in the assay on HFL-1 cells [2] and 32.5 nM in assay [3].
Turning to `N#Cc1cc2nc(Cc3nn(CC(=O)NCC4(CO)COC4)c(=O)c4ccccc34)[nH]c2cc1OCC(F)F` [Compound 199, 2-[4-[[5-cyano-6-(2,2-difluoroethoxy)-1H-benzimidazol-2-yl)methyl]-1-oxo-phthalazin-2-yl]-N-[[3-(hydroxymethyl)oxetan-3-yl]methyl]acetamide], the EC50 in the assay with HFL-1 cells [1] was determined as 80.3 nM; on S1PR2 it was 173 nM; in the assay on HFL-1 cells [2], 276 nM; in assay [3], 54.6 nM.
For `N#Cc1cc2nc(Cc3nn(CC(=O)N4CCOCC4)c(=O)c4c3CCCC4)[nH]c2cc1OCC(F)(F)F` [Compound 200, 2-[[3-(2-morpholino-2-oxo-ethyl)-4-oxo-5,6,7,8-tetrahydrophthalazin-1-yl]methyl]-6-(2,2,2-trifluoroethoxy)-1H-benzimidazole-5-carbonitrile], the half-maximal effective concentration (EC50) in the assay with HFL-1 cells [1] was determined as 10.6 nM; on S1PR2 it was 93.7 nM; in the assay on HFL-1 cells [2] it was 103 nM; in assay [3] it was 8.77 nM.
Taken in the same sequence, the figures for `CC(C)(C)CNC(=O)Cn1nc(Cc2nc3cc(OCC(F)F)c(C#N)cc3[nH]2)c2ccccc2c1=O` [Compound 202, 2-[4-[[6-cyano-5-(2,2-difluoroethoxy)-1H-benzimidazol-2-yl]methyl)-1-oxo-phthalazin-2-yl]-N-(2,2-dimethylpropyl)acetamide] were 13.4 nM, 48 nM, 479 nM and 6.86 nM.
Taken in the same sequence, the figures for `CC(C)(C)NC(=O)Cn1nc(Cc2nc3cc(OCC(F)F)c(C#N)cc3[nH]2)c2c(c1=O)CCCC2` [Compound 203, N-tert-butyl-2-[4-[[6-cyano-5-(2,2-difluoroethoxy)-1H-benzimidazol-2-yl]methyl]-1-oxo-5,6,7,8-tetrahydrophthalazin-2-yl]acetamide] were 1020 nM, 343 nM, 1940 nM and 148 nM.
Taken in the same sequence, the figures for `N#Cc1cc2nn(Cc3nn(CC(=O)N4CCOCC4)c(=O)c4ccccc34)cc2cc1OCC(F)F` [Compound 205, 5-(2,2-difluoroethoxy)-2-[[3-(2-morpholino-2-oxo-ethyl)-4-oxo-phthalazin-1-yl]methyl]indazole-6-carbonitrile] were 2640 nM, 7680 nM, 9070 nM and 13200 nM.
For the molecule `CN(C)[C@@H]1CCN(C(=O)Cn2nc(Cn3cc4cc(OCC(F)F)c(C#N)cc4n3)c3ccccc3c2=O)C1` [Compound 206], the EC50 was 2990 nM in the assay with HFL-1 cells [1], 3620 nM at S1PR2, 2630 nM in the assay with HFL-1 cells [2] and at least 19800 nM in assay [3].
